From the NIST ThermoML archive (doi:10.1016/j.jct.2008.04.004)
Numbers after ± are expanded uncertainties.

Legend:
[1] = molar enthalpy of vaporization or sublimation; settings: 298.15 K, Crystal
[2] = Crystal
[3] = stuart scientific smp2 calibrated apparatus

| molar enthalpy ([1]; Unpublished results by the authors) | SMILES | molar enthalpy ([1]; Vacuum drop calorimetry) | Normal melting temperature ([2]; DTA) | Normal melting temperature [2, 3] |
| --- | --- | --- | --- | --- |
|  | N#Cc1ccccc1C(=O)O [2-cyanobenzoic acid] | 27.4 ± 0.717 kcal/mol | 232.6 ± 0.5 °C |  |
|  | N#Cc1cccc(C(=O)O)c1 [3-cyanobenzoic acid] | 27.9 ± 0.717 kcal/mol |  | 223 ± 1 °C |
| 27 ± 0.478 kcal/mol | N#Cc1ccc(C(=O)O)cc1 [4-cyanobenzoic acid] |  |  | 220 ± 1 °C |
